Experimental data published in ChEMBL document CHEMBL1201862, “PubChem BioAssay data set” (2004).
The source made the active and inactive calls.

Tests used:
[1] = target: T1, Replicative DNA helicase DnaB (Mycobacterium tuberculosis, UniProt P9WMR3); test: DnaB intein splicing inhibitors, dose response, biochemical, cell-free fluorescence (AID 449749); assay type: functional
T1 sequence (P9WMR3 whole entry): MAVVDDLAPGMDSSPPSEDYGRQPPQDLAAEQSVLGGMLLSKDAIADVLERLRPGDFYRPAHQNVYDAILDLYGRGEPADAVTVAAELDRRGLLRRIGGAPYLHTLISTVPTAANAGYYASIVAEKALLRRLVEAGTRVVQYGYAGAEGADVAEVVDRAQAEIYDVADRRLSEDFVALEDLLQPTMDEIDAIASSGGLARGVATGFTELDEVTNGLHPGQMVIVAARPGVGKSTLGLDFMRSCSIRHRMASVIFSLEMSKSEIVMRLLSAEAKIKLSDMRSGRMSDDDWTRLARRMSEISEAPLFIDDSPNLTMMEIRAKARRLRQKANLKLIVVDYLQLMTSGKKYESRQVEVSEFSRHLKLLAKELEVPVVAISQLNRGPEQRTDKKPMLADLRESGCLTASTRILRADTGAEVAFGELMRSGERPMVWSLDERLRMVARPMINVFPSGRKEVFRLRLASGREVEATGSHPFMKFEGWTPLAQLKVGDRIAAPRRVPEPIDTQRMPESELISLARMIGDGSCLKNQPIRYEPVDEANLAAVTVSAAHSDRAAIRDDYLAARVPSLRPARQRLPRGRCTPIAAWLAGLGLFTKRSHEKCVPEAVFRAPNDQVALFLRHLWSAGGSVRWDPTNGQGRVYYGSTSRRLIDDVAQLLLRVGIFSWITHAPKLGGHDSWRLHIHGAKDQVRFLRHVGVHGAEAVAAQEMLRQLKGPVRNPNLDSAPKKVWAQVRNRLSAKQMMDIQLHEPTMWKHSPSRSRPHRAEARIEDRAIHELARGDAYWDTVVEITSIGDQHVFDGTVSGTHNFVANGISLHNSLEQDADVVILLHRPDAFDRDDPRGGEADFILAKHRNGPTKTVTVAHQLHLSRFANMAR

Protein RecA = target: T2, Protein RecA (Mycobacterium tuberculosis, UniProt P9WHJ3); test: Fluorescence Cell-Free Homogeneous Dose Retest to Identify Inhibitors of RecA-Intein Splicing Activity. [Related pubchem assays (depositor defined):AID2097, AID2223, AID489010, AID492950]; assay type: functional
T2 sequence (P9WHJ3 whole entry): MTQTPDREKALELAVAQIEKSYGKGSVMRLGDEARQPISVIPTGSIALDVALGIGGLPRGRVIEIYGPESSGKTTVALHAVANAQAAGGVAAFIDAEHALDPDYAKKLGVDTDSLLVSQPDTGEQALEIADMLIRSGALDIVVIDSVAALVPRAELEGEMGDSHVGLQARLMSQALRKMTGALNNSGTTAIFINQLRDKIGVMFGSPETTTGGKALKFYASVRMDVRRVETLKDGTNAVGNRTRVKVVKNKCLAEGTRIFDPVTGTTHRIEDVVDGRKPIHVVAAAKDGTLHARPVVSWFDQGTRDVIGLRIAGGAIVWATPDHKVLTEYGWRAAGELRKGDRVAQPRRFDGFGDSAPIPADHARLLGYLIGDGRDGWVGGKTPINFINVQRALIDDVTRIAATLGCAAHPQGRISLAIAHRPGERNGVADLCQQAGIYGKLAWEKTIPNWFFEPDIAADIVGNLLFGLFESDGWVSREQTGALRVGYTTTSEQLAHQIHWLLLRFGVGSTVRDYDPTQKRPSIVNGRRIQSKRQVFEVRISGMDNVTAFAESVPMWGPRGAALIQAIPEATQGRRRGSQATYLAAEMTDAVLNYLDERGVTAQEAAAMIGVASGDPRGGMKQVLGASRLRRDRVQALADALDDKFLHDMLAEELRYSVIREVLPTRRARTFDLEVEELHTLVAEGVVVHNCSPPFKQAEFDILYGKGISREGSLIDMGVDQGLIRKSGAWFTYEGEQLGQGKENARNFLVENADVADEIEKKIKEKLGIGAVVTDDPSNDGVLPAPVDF

[2] = target: T3, Tyrosyl-DNA phosphodiesterase 2 (Homo sapiens, UniProt O95551); test: potency against TDP2 phosphodiesterase activity – biochemical, epi absorbance, IC50, dose response (AID 743297)
T3 sequence (O95551 whole entry): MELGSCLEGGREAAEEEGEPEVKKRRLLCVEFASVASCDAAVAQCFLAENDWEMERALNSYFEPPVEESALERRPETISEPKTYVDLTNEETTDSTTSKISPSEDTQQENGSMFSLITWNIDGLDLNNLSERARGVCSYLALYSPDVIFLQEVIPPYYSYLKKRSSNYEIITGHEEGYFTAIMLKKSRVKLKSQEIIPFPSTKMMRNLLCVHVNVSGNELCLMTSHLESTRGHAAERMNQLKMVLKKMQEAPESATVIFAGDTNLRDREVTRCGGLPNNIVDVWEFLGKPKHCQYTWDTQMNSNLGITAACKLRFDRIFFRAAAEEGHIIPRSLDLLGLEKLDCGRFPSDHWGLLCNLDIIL

COC(CNC(=O)c1ccc2c3c(onc13)-c1ccccc1C2=O)OC
AC50 [1]: 3.06 µM (active) | EC50 (Protein RecA): 5.99 µM (active)

Cc1ccc2nc(/C(C#N)=C\c3ccc([N+](=O)[O-])o3)[nH]c2c1
EC50 (Protein RecA): 0.454 µM (active)

COc1ccc(OC)c(Nc2cc3ccccc3c(O)n2)c1
IC50 [2]: 24.9 µM (inactive) | AC50 [1]: > 120 µM (inconclusive) | EC50 (Protein RecA): 1.34 µM (active)

O=C(O)c1ccc(NC2=C/C(=N/S(=O)(=O)c3ccccc3)c3ccccc3C2=O)cc1
IC50 [2]: 1.88 µM (active)

Nc1ccc2c(c1)C(=O)C(=O)c1ccccc1-2
IC50 [2]: 1.34 µM (active) | AC50 [1]: 5.32 µM (active) | EC50 (Protein RecA): 6.36 µM (active)
